Where two headings read alike, the source gives them in different places.
Legend:
[1] = molecular target: T1, KRas G12D fused to HiBiT peptide (Homo sapiens, UniProt P01116, G12D); assay: ASPC-1 HiBit assay to determine G12D degradation; assay type: cell-based; details: AsPC-1 HiBiT cells, 24-hour incubation; read-out: ASPC-1 HiBit DC50 (C)
T1 construct: endogenous in cells; host or cells: AsPC-1 HiBiT knock-in single clone (Cas9 RNP + ssODN)
Summary of the method: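 Homozygous AsPC-1 clone with N-terminal HiBiT knock-in on endogenous KRas G12D, 24 h compound exposure, top dose 10 μM, 3-fold, 10 points, 1% DMSO. Lytic HiBiT luminescence normalised to DMSO and inhibitor controls gives % degradation; DC50 from 4-parameter fit after hook-effect points removed.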

KRAS (WT) = molecular target: T2, KRAS (WT) (Homo sapiens, UniProt P01116); assay: In-vitro RAS-RAF binding assay (RRB), HTRF/FRET; assay type: biochemical; details: read-out: Inhibition of RAS-RAF Binding (in-vitro) KRAS (WT) IC50
T2 construct: Biotinylated KRAS protein amino acids 1-169 (produced at Erasca); made in house
T2 sequence (P01116 1-169 isoform P01116-2): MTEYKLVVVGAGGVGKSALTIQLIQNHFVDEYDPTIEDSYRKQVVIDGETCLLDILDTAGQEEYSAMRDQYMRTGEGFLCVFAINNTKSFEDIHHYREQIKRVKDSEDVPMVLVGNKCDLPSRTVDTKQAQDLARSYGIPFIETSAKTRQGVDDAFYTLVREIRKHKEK
Summary of the method: (§1)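 Compounds preincubated with terbium-labelled biotinylated KRAS (aa 1-169, 30 nM) before 60 min SOS1-catalysed exchange to GTPgS. Binding of the d2-labelled cRAF RBD (30 nM) is read as FRET at equilibrium in duplicate. Buffer: 50 mM HEPES pH 7.5, 100 mM NaCl, 1 mM MgCl2, 1 mM DTT.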

KRAS G12D = KRAS G12D (Homo sapiens, UniProt P01116, G12D); assay: In-vitro RAS-RAF binding assay (RRB), HTRF/FRET; assay type: biochemical; parameters: Biotinylated KRAS protein amino acids 1-169 (produced at Erasca); made in house; details: read-out: Inhibition of RAS-RAF Binding (in-vitro) KRAS (G12D) IC50
Sequence of KRAS G12D (P01116 1-169 isoform P01116-2 G12D): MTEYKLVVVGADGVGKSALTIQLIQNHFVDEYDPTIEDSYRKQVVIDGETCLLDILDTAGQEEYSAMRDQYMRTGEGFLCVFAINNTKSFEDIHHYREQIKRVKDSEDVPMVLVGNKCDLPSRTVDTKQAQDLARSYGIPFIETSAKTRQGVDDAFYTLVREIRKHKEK
Summary of the method: as §1

[2] = Table 2, average of multiple runs of each compound

T1 sequence (P01116 1-188 isoform P01116-2 G12D): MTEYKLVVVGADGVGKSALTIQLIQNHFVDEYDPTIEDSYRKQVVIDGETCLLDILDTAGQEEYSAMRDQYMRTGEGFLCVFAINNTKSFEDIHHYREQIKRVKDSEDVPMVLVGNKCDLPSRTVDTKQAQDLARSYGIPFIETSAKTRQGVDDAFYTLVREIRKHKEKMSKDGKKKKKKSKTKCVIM

Row | Structure (SMILES) | DC50 [1] [nM] | IC50 (KRAS (WT); [2]) [nM] | IC50 (KRAS G12D; [2]) [nM] | IC50 (KRAS (WT); Table 1) [nM] | IC50 (KRAS G12D; Table 1) [nM]
1 | C[C@H](NC(=O)[C@@H]1C[C@@H](O)CN1C(=O)[C@@H](NC(=O)CCOCCCN1CCC[C@H]1COc1nc(N2CC3CCC(C2)N3)c2cc(C(F)(F)F)c(-c3ccc(F)c4sc(N)c(C#N)c34)c(F)c2n1)C(C)(C)C)c1ccc(-c2c(F)cccc2F)cc1 (single isomer, unassigned) [Example 20] | 22.7 | 26.9 | 8.52 |  | 
2 | Cc1ncsc1-c1ccc([C@H](C)NC(=O)[C@@H]2C[C@@H](O)CN2C(=O)[C@@H](NC(=O)CCOCCCN2CCCC2COc2nc(N3CC4CCC(C3)N4)c3cc(Cl)c(-c4ccc(F)c5sc(N)c(C#N)c45)c(F)c3n2)C(C)(C)C)cc1 (stereo partly drawn) [Example 8, (2S,4R)-1-[(2S)-2-[3-[3-[2-[[7-(2-amino-3-cyano-7-fluoro-benzothiophen-4-yl)-6-chloro-4-(3,8-diazabicyclo[3.2.1]octan-3-yl)-8-fluoro-quinazolin-2-yl]oxymethyl]pyrrolidin-1-yl]propoxy]propanoylamino]-3,3-dimethyl-butanoyl]-4-hydroxy-N-[(1S)-1-[4-(4-methylthiazol-5-yl)phenyl]ethyl]pyrrolidine-2-carboxamide] | 126 | 25.9 | 8.18 | 51 | 11
